Results: patent US5296604A, “Proline derivatives and compositions for their use as inhibitors of HIV protease” (priority 1992, dated 1994)
Where two headings read alike, the source gives them in different places.

Target: T1, HIV protease (Human immunodeficiency virus type 1 group M subtype B, UniProt P03366)
T1 construct: the predicted size of the protease is 99 amino acids
Assay: HIV protease inhibition, fluorometric RP-HPLC assay with N-dansyl-peptide substrate
Type: biochemical
Details: for inhibitory potency (in words): comparison by stereochemistry (2S,3S versus 2R,3R) and by hexan-1-olyl versus hexanoate group; for HIV Protease IC50 values of tested Examples (estimated): *Estimated IC50 from the observed inhibition at 10 μM concentration; for IC50 (estimated): estimated from the % inhibition at 10000 nM final; for activity relative to range necessary for therapeutic development: in words
Experimental: Following synthesis, the preferred embodiment compounds were tested for HIV protease inhibition. For in vitro potency testing, the N terminus of substrate amino acid sequences were first dansylated. The amino acid sequences present in such N-dansyl-peptide substrates can include, but are not limited to native proteolytic cleavage site sequences for the HIV gag and pol polyproteins.
The prepared substrates were incubated with HIV protease and compounds of the present invention, under conditions in which the protease is catalytically active. […] Following incubation, aliquots of the incubate were analyzed with reverse phase high performance liquid chromatography (hereinafter "RP-HPLC"). Any uncoverted peptide substrate is resolved from peptide product(s) and then detected by an inline fluorescence monitor. The amount of product formed over a known time interval may then be used to calculate the activity of the enzyme under the specific assay conditions. The amount of fluorescence detected in the eluted peak from HPLC can be related to the amount of peptide in the peak by prior HPLC analysis of standardized samples. The amount of peptide in the pure, standardized samples is determined accurately by amino acid analysis.
Inhibitory potency was assessed, in vitro, according to published procedures in Tamburini et al., 1990, "A Fluorometric Assay for HIV-Protease Activity Using High-Performance Liquid Chromatography", Analytical Biochemistry, 186:363.
HIV-protease was pre-incubated with or without the inhibitor compound at 37° C. and under buffer, ionic strength and pH conditions affording optimal protease activity. An N-dansyl-peptide substrate was then added to the incubation mixture. For example the dansylated substrate could be:
N-Dansyl-Ser-Gln-Asn-Tyr-Pro-Ile-Val (SEQ ID NO: 1)
The incubation mixture was then incubated at 37° C. During the incubation, the substrate is cleaved by the protease at the Tyr-Pro peptide bond to yield N-Dansyl-Ser-Gln-Asn-Tyr (SEQ ID NO: 2). At the end of the incubation (40 min) the reaction was terminated by acidification with TFA, and the amounts of unconverted substrate and fluorescent product were detected and quantified by subsequent RP-HPLC analysis with post column fluorescence detection.
The rate of cleavage of the substrate is quantified from the amount of product formed in the known incubation time. Specific assay conditions were as follows:
Incubations (75 ul) containing the complete system without substrate were preincubated at 37° C. for 15 min prior to initiation of the protease reaction by the addition of 25 ul of stock 400 uM substrtate peptide solution. The initial component concentrations at the start of the reaction were: HIV-protease (20 ul of a dilution sufficient to produce 40 to 60% substrate cleavage in 40 min), dimethyl sulphoxide (5%v/v), N-Dansyl-Ser-Gln-Asn-Tyr- […] (SEQ ID NO: 1) (100 uM), and sodium chloride (3 M) in 150 mM mes buffer pH 6.0. After a further incubation time of 40 min at 37° C. reactions were terminated by the addition of 50 ul of 12% (v/v) tri-flouroacetic acid, and then loaded into the HPLC autosampler for analysis.
Inhibitors were added to the incubation mixtures […] to protease addition before the preincubation, as stock solutions in dimethyl suphoxide, lower concentrations of inhibitor were obtained by serial dilution of the incubation mixture containing the highest inhibitor concentration. The range of inhibitor concentrations were designed to cover the range yielding zero to 100% inhibition of protease activity. Dilution of the HIV-protease activity (so as to achieve an amount of enzyme activity in 20 ul to produce 40 to 60% substrate conversion when added to the incubation) was achieved using the following buffer: 50 mM sodium acetate buffer pH 5.2, 50 mM sodium chloride, 20 mM DL-dithiothreitol, 20% (v/v) glycerol, 0.1% (v/v) triton X-100 and 1.5 M urea. […]

[1] = Table I, NI = no inhibition at 10 μM final concentration, 37 °C, 40 min, pH 6.0, read-out: HIV Protease IC50 values of tested Examples
[2] = Table II, titrated (Dixon plot, inhibitor up to 100-10000 nM), NI = no inhibition (tested at 10000 nM), read-out: IC50 (concentration in the assay incubation which inhibits the HIV protease activity by 50%)

| inhibitory potency (in words) | SMILES | IC50 [1] [µM] | IC50 [2] [µM] | also measured |
| --- | --- | --- | --- | --- |
| – | CC[C@H](C)[C@H](NC(=O)[C@@H]1CCCN1[C@H](C(=O)OC)[C@H](CC(C)C)NC(=O)OCc1ccccc1)C(=O)NCc1ccccc1 [Example 7, (2S, 3S) N-[methyl 2-(3-carbobenzyloxyamino-5-methyl-hexanoyl)]-Prolyl-Isoleucine N-Benzyl amide] | > 10 | > 10 | – |
| – | CC[C@H](C)[C@H](NC(=O)[C@@H]1CCCN1[C@@H](C(=O)OC)[C@@H](CC(C)C)NC(=O)OCc1ccccc1)C(=O)NCc1ccccc1 [Example 8] | > 10 | > 10 | – |
| significant inhibitor potency | CC[C@H](C)[C@H](NC(=O)[C@@H]1CCCN1[C@H](CO)[C@H](CC(C)C)NC(=O)OCc1ccccc1)C(=O)NCc1ccccc1 [Example 9, (2S, 3S) N-[2-(3-carbobenzyoxyamino-5-methylhexan-1-olyl)]-Prolyl-Isoleucine N-Benzyl amide] | 1.9 | – | – |
| – | CC[C@H](C)[C@H](NC(=O)[C@@H]1CCCN1[C@H](C(=O)OC)[C@H](CC(C)C)NC(=O)[C@H](CC#N)NC(=O)OCc1ccccc1)C(=O)NCc1ccccc1 [Example 11a] | > 10 | > 10 | – |
| – | CC[C@H](C)[C@H](NC(=O)[C@@H]1CCCN1[C@H](C(=O)OC)[C@H](CC(C)C)NC(=O)[C@H](CC(N)=O)NC(=O)OCc1ccccc1)C(=O)NCc1ccccc1 [Example 11b] | – | – | HIV Protease IC50 values of tested Examples (estimated) (Table I): 15 µM; IC50 (estimated) (Table II): 15 µM |
| significant inhibitor potency | CC[C@H](C)[C@H](NC(=O)[C@@H]1CCCN1[C@H](CO)[C@H](CC(C)C)NC(=O)[C@H](CC(N)=O)NC(=O)OCc1ccccc1)C(=O)NCc1ccccc1 [Example 12, (2S, 3S) N-[2-(3-(N-carbobenzyloxy-asparaginyl)amino-5-methylhexan-1-olyl)]-Prolyl-Isoleucine N-Benzyl amide] | 0.125 | – | increase in inhibitory potency by additional Asn residue (Example 12 versus Example 9): 152 fold; activity relative to range necessary for therapeutic development: within the range necessary for therapeutic development |
| – | CC[C@H](C)[C@H](NC(=O)[C@@H]1CCCN1[C@H](C(=O)OC)[C@H](CC(C)C)NC(=O)[C@H](CC(N)=O)NC(=O)c1ccc2ccccc2n1)C(=O)NCc1ccccc1 [Example 14] | – | – | HIV Protease IC50 values of tested Examples (estimated) (Table I): > 50 µM; IC50 (estimated) (Table II): > 50 µM |
| significant inhibitor potency | CC[C@H](C)[C@H](NC(=O)[C@@H]1CCCN1[C@H](CO)[C@H](CC(C)C)NC(=O)[C@H](CC(N)=O)NC(=O)c1ccc2ccccc2n1)C(=O)NCc1ccccc1 [Example 15] | 0.035 | – | increase in inhibitory potency by N-quinaldehyde in place of N-carbo-benzyloxy (Example 15 versus Example 12): 3.6 fold; activity relative to range necessary for therapeutic development: within the range necessary for therapeutic development |
| – | CC[C@H](C)[C@H](NC(=O)[C@@H]1CCCN1[C@@H](C(=O)OC)[C@@H](CC(C)C)NC(=O)[C@H](CC(N)=O)NC(=O)c1ccc2ccccc2n1)C(=O)NCc1ccccc1 [Example 16, (2R, 3R) N-[2 (3-(N-guinaldyl-asparaginyl)amino-5-methyl-hexanoate)]-Prolyl-Isoleucine N-Benzyl amide] | > 10 | > 10 | – |
| innactive or poorly active | CC[C@H](C)[C@H](NC(=O)[C@@H]1CCCN1[C@@H](CO)[C@@H](CC(C)C)NC(=O)[C@H](CC(N)=O)NC(=O)c1ccc2ccccc2n1)C(=O)NCc1ccccc1 [Example 17, (2R, 3R) N-[2-(3-(N-guinaldyl-asparaginyl)amino-5-methylhexan-1-olyl)]-Prolyl-Isoleucine N-Benzyl amide] | – | – | HIV Protease IC50 values of tested Examples (estimated) (Table I): 15 µM; IC50 (estimated) (Table II): 15 µM |

| SMILES | inhibitory potency (in words) | IC50 [1] [µM] | IC50 [2] [µM] | also measured |
| --- | --- | --- | --- | --- |
| CC[C@H](C)[C@H](NC(=O)[C@@H]1CCCN1[C@@H](CO)[C@@H](CC(C)C)NC(=O)OCc1ccccc1)C(=O)NCc1ccccc1 [Example 10] | innactive or poorly active | > 10 | > 10 | – |
